# Measurements reported in ChEMBL document CHEMBL1157737, “Natural ortho-dihydroxyisoflavone derivatives from aged Korean fermented soybean paste as potent tyrosinase and melanin formation inhibitors” (Bioorg Med Chem Lett, 2010).
# How the values were obtained:
# [1] = molecular target: T1, Tyrosinase (Mus musculus, UniProt P11344); assay: Inhibition of tyrosinase in mouse Melan-a cells by ELISA; format: cell-based
# T1 sequence (P11344 whole entry): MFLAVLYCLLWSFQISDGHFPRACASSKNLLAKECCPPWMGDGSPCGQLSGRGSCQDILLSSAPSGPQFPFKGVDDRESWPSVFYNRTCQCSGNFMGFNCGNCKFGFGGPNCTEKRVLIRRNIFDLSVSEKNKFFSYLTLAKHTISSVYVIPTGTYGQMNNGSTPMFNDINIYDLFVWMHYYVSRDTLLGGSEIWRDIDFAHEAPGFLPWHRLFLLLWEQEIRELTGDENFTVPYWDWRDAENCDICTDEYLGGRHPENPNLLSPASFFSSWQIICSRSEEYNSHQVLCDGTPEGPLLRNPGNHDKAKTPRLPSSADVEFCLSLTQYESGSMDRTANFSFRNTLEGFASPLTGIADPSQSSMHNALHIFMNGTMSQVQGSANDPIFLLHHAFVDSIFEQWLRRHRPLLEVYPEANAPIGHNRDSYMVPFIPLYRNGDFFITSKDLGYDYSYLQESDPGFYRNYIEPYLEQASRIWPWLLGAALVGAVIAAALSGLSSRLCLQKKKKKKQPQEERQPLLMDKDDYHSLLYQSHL
# [2] = tested on: Melan-a; assay: Inhibition of melanin formation in mouse Melan-a cells after 5 days by ELISA; format: functional, cell-based; settings: 120 h
# [3] = Antioxidant activity assessed as superoxide radical scavenging activity after 2 mins by NBT reduction assay; format: functional
Structure (SMILES),IC50 [1] [µM],IC50 [2] [µM],IC50 [3] [µM]
COc1cc2c(=O)c(-c3ccc(O)cc3)coc2cc1O [GLYCITEIN],> 500,> 500,> 500
O=C1O[C@H]([C@@H](O)CO)C(O)=C1O [ASCORBIC ACID],–,–,65.1
O=c1c(-c2ccc(O)cc2)coc2cc(O)ccc12 [DAIDZEIN],> 500,> 500,> 500

# Second part, the molecule after the results:
IC50 [1] [µM],IC50 [2] [µM],IC50 [3] [µM],Structure (SMILES)
> 500,57.8,489,O=c1c(-c2ccc(O)cc2)coc2cc(O)cc(O)c12 [GENISTEIN]
11.2,12.2,18.1,O=c1c(-c2ccc(O)cc2)coc2c(O)c(O)ccc12
> 500,> 500,> 500,O=c1c(-c2ccc(O)cc2)coc2cc(O)c(O)cc12
5.23,7.83,10.5,O=c1c(-c2ccc(O)c(O)c2)coc2cc(O)ccc12
–,98,–,OC[C@H]1O[C@@H](Oc2ccc(O)cc2)[C@H](O)[C@@H](O)[C@@H]1O [ARBUTIN]
